We go through 30 compounds from paper PMC7169845, “Synthesis and Bioactivity of Phthalimide Analogs as Potential Drugs to Treat Schistosomiasis, a Neglected Disease of Poverty” (Pharmaceuticals, 2020).

`CC(c1nc2ccccc2n1Cc1cn(-c2ccccc2)nn1)N1C(=O)c2ccccc2C1=O` (stereo not drawn) [6a’, 2-(1-(1-((1-Phenyl-1H-1,2,3-triazol-4-yl)methyl)-1H-benzo[d]imidazol-2-yl)ethyl)isoindoline-1,3-dione] had a melting point of 187 to 189 °C. On to `CC(C)C(c1nc2ccccc2n1Cc1cn(-c2ccccc2F)nn1)N1C(=O)c2ccccc2C1=O` (stereo not drawn) [6s’, 2-(1-(1-((1-(2-Fluorophenyl)-1H-1,2,3-triazol-4-yl)methyl)-1H-benzo[d]imidazol-2-yl)-2-methylpropyl)isoindoline-1,3-dione], for which the melting point fell in the range of 115 to 117 °C. To `CCC(C)C(c1nc2ccccc2n1Cc1cn(-c2c(F)c(F)c(F)c(F)c2F)nn1)N1C(=O)c2ccc(C)cc2C1=O` (stereo not drawn) [6s, 5-Methyl-2-(2-methyl-1-(1-((1-(perfluorophenyl)-1H-1,2,3-triazol-4-yl)methyl)-1H-benzo[d]imidazol-2-yl)butyl)isoindoline-1,3-dione] belongs 196 to 198 °C; to `Cc1ccc2c(c1)C(=O)N(C(CC(C)C)c1nc3ccccc3n1Cc1cn(-c3ccccc3)nn1)C2=O` (stereo not drawn) [6g, 5-Methyl-2-(3-methyl-1-(1-((1-phenyl-1H-1,2,3-triazol-4-yl)methyl)-1H-benzo[d]imidazol-2-yl)butyl)isoindoline-1,3-dione], 67 to 69 °C; to `Cc1ccc2c(c1)C(=O)N(C(C)c1nc3ccccc3n1Cc1cn(Cc3ccccc3)nn1)C2=O` (stereo not drawn) [6m’, 2-(1-(1-((1-Benzyl-1H-1,2,3-triazol-4-yl)methyl)-1H-benzo[d]imidazol-2-yl)ethyl)-5-methylisoindoline-1,3-dione], 142 to 144 °C.

As for `CCC(C)C(c1nc2ccccc2n1Cc1cn(-c2ccccc2F)nn1)N1C(=O)c2ccc(C)cc2C1=O` (stereo not drawn) [6q, 2-(1-(1-((1-(2-Fluorophenyl)-1H-1,2,3-triazol-4-yl)methyl)-1H-benzo[d]imidazol-2-yl)-2-methylbutyl)-5-methylisoindoline-1,3-dione], the melting point lay in the range of 114 to 116 °C. In turn, `CC(C)CC(c1nc2ccccc2n1Cc1cn(-c2c(F)cccc2F)nn1)N1C(=O)c2ccccc2C1=O` (stereo not drawn) [6p, 2-(1-(1-((1-(2,6-Difluorophenyl)-1H-1,2,3-triazol-4-yl)methyl)-1H-benzo[d]imidazol-2-yl)-3-methylbutyl)isoindoline-1,3-dione] had a melting point of 198 to 200 °C. To `CC(C)CC(c1nc2ccccc2n1Cc1cn(-c2ccc(C(F)(F)F)cc2)nn1)N1C(=O)c2ccccc2C1=O` (stereo not drawn) [6m, 2-(3-Methyl-1-(1-((1-(4-(trifluoromethyl)phenyl)-1H-1,2,3-triazol-4-yl)methyl)-1H-benzo[d]imidazol-2-yl)butyl)isoindoline-1,3-dione] belongs 216 to 218 °C; to `Cc1ccc2c(c1)C(=O)N(C(C)c1nc3ccccc3n1Cc1cn(-c3ccc(F)cc3F)nn1)C2=O` (stereo not drawn) [6p’, 2-(1-(1-((1-(2,4-Difluorophenyl)-1H-1,2,3-triazol-4-yl)methyl)-1H-benzo[d]imidazol-2-yl)ethyl)-5-methylisoindoline-1,3-dione], 206 to 208 °C; to `Cc1ccc2c(c1)C(=O)N(C(CC(C)C)c1nc3ccccc3n1Cc1c[nH]nn1)C2=O` (stereo not drawn) [6c, 2-(1-(1-((1H-1,2,3-Triazol-4-yl)methyl)-1H-benzo[d]imidazol-2-yl)-3-methylbutyl)-5-methylisoindoline-1,3-dione], 150 to 152 °C. `Cc1ccc(-n2cc(Cn3c(C(C)N4C(=O)c5ccc(C)cc5C4=O)nc4ccccc43)nn2)cc1` (stereo not drawn) [6i’, 5-Methyl-2-(1-(1-((1-(p-tolyl)-1H-1,2,3-triazol-4-yl)methyl)-1H-benzo[d]imidazol-2-yl)ethyl)isoindoline-1,3-dione] came in with a melting point of 216 to 218 °C.

`Cc1ccc2c(c1)C(=O)N(C(CC(C)C)c1nc3ccccc3n1Cc1cn(-c3c(F)cccc3F)nn1)C2=O` (stereo not drawn) [6k, 2-(1-(1-((1-(2,6-Difluorophenyl)-1H-1,2,3-triazol-4-yl)methyl)-1H-benzo[d]imidazol-2-yl)-3-methylbutyl)-5-methylisoindoline-1,3-dione] displayed a melting point of 71 to 73 °C.

Turning to `CC(c1nc2ccccc2n1Cc1cn(-c2ccccc2F)nn1)N1C(=O)c2ccccc2C1=O` (stereo not drawn) [6c’, 2-(1-(1-((1-(2-Fluorophenyl)-1H-1,2,3-triazol-4-yl)methyl)-1H-benzo[d]imidazol-2-yl)ethyl)isoindoline-1,3-dione], the melting point lay in the range of 186 to 188 °C. Next, `Cc1ccc2c(c1)C(=O)N(C(CC(C)C)c1nc3ccccc3n1Cc1cn(Cc3ccccc3)nn1)C2=O` (stereo not drawn) [6f, 2-(1-(1-((1-Benzyl-1H-1,2,3-triazol-4-yl)methyl)-1H-benzo[d]imidazol-2-yl)-3-methylbutyl)-5-methylisoindoline-1,3-dione]: 142 to 144 °C; `CC(C)CC(c1nc2ccccc2n1Cc1cn(-c2c(F)c(F)c(F)c(F)c2F)nn1)N1C(=O)c2ccccc2C1=O` (stereo not drawn) [6l, 2-(3-Methyl-1-(1-((1-(perfluorophenyl)-1H-1,2,3-triazol-4-yl)methyl)-1H-benzo[d]imidazol-2-yl)butyl)isoindoline-1,3-dione]: 100 to 102 °C. To `Cc1ccc2c(c1)C(=O)N(C(CC(C)C)c1nc3ccccc3n1Cc1cn(-c3ccc(F)cc3F)nn1)C2=O` (stereo not drawn) [6j, 2-(1-(1-((1-(2,4-Difluorophenyl)-1H-1,2,3-triazol-4-yl)methyl)-1H-benzo[d]imidazol-2-yl)-3-methylbutyl)-5-methylisoindoline-1,3-dione] belongs 72 to 74 °C; to `Cc1ccc2c(c1)C(=O)N(C(C)c1nc3ccccc3n1Cc1cn(-c3ccccc3)nn1)C2=O` (stereo not drawn) [6l’, 5-Methyl-2-(1-(1-((1-phenyl-1H-1,2,3-triazol-4-yl)methyl)-1H-benzo[d]imidazol-2-yl)ethyl)isoindoline-1,3-dione], 185 to 187 °C; to `Cc1ccc(-n2cc(Cn3c(C(CC(C)C)N4C(=O)c5ccc(C)cc5C4=O)nc4ccccc43)nn2)cc1` (stereo not drawn) [6b, 5-Methyl-2-(3-methyl-1-(1-((1-(p-tolyl)-1H-1,2,3-triazol-4-yl)methyl)-1H-benzo[d]imidazol-2-yl)butyl)isoindoline-1,3-dione], 160 to 162 °C. `Cc1ccc2c(c1)C(=O)N(C(C)c1nc3ccccc3n1Cc1c[nH]nn1)C2=O` (stereo not drawn) [6k’, 2-(1-(1-((1H-1,2,3-Triazol-4-yl)methyl)-1H-benzo[d]imidazol-2-yl)ethyl)-5-methylisoindoline-1,3-dione] showed a melting point of 100 to 102 °C. Next, `Cc1ccc2c(c1)C(=O)N(C(CC(C)C)c1nc3ccccc3n1Cc1cn(-c3ccc(C(F)(F)F)cc3)nn1)C2=O` (stereo not drawn) [6e, 5-Methyl-2-(3-methyl-1-(1-((1-(4-(trifluoromethyl)phenyl)-1H-1,2,3-triazol-4-yl)methyl)-1H-benzo[d]imidazol-2-yl)butyl)isoindoline-1,3-dione]: 218 to 220 °C; `COc1ccc(-n2cc(Cn3c(C(CC(C)C)N4C(=O)c5ccc(C)cc5C4=O)nc4ccccc43)nn2)cc1` (stereo not drawn) [6h, 2-(1-(1-((1-(4-Methoxyphenyl)-1H-1,2,3-triazol-4-yl)methyl)-1H-benzo[d]imidazol-2-yl)-3-methylbutyl)-5-methylisoindoline-1,3-dione]: 101 to 103 °C; `Cc1ccc2c(c1)C(=O)N(C(CC(C)C)c1nc3ccccc3n1Cc1cn(-c3ccc(F)cc3)nn1)C2=O` (stereo not drawn) [6a, 2-(1-(1-((1-(4-Fluorophenyl)-1H-1,2,3-triazol-4-yl)methyl)-1H-benzo[d]imidazol-2-yl)-3-methylbutyl)-5-methylisoindoline-1,3-dione]: 208 to 210 °C. In the case of `Cc1ccc2c(c1)C(=O)N(C(C)c1nc3ccccc3n1Cc1cn(-c3c(F)cccc3F)nn1)C2=O` (stereo not drawn) [6q’, 2-(1-(1-((1-(2,6-Difluorophenyl)-1H-1,2,3-triazol-4-yl)methyl)-1H-benzo[d]imidazol-2-yl)ethyl)-5-methylisoindoline-1,3-dione], the melting point was in the range of 166 to 168 °C. Next, `Cc1ccc2c(c1)C(=O)N(C(C)c1nc3ccccc3n1Cc1cn(-c3ccccc3F)nn1)C2=O` (stereo not drawn) [6o’, 2-(1-(1-((1-(2-Fluorophenyl)-1H-1,2,3-triazol-4-yl)methyl)-1H-benzo[d]imidazol-2-yl)ethyl)-5-methylisoindoline-1,3-dione]: 185 to 187 °C. `CCC(C)C(c1nc2ccccc2n1Cc1cn(-c2ccc(F)cc2F)nn1)N1C(=O)c2ccc(C)cc2C1=O` (stereo not drawn) [6r, 2-(1-(1-((1-(2,4-Difluorophenyl)-1H-1,2,3-triazol-4-yl)methyl)-1H-benzo[d]imidazol-2-yl)-2-methylbutyl)-5-methylisoindoline-1,3-dione] had a melting point of 89 to 91 °C.

For `CC(C)CC(c1nc2ccccc2n1Cc1cn(-c2ccccc2F)nn1)N1C(=O)c2ccccc2C1=O` (stereo not drawn) [6n, 2-(1-(1-((1-(2-Fluorophenyl)-1H-1,2,3-triazol-4-yl)methyl)-1H-benzo[d]imidazol-2-yl)-3-methylbutyl)isoindoline-1,3-dione], the melting point lay within 107 to 109 °C. `CC(C)C(c1nc2ccccc2n1Cc1cn(-c2c(F)cccc2F)nn1)N1C(=O)c2ccccc2C1=O` (stereo not drawn) [6u’, 2-(1-(1-((1-(2,6-Difluorophenyl)-1H-1,2,3-triazol-4-yl)methyl)-1H-benzo[d]imidazol-2-yl)-2-methylpropyl)isoindoline-1,3-dione]: the melting point was 91 to 93 °C. To `CC(C)C(c1nc2ccccc2n1Cc1cn(-c2ccc(F)cc2F)nn1)N1C(=O)c2ccccc2C1=O` (stereo not drawn) [6t’, 2-(1-(1-((1-(2,4-Difluorophenyl)-1H-1,2,3-triazol-4-yl)methyl)-1H-benzo[d]imidazol-2-yl)-2-methylpropyl)isoindoline-1,3-dione] belongs 100 to 102 °C. In turn, `CC(c1nc2ccccc2n1Cc1cn(-c2c(F)c(F)c(F)c(F)c2F)nn1)N1C(=O)c2ccccc2C1=O` (stereo not drawn) [6b’, 2-(1-(1-((1-(Perfluorophenyl)-1H-1,2,3-triazol-4-yl)methyl)-1H-benzo[d]imidazol-2-yl)ethyl)isoindoline-1,3-dione] registered a melting point of 215 to 217 °C. Next, `Cc1ccc2c(c1)C(=O)N(C(C)c1nc3ccccc3n1Cc1cn(-c3ccncc3)nn1)C2=O` (stereo not drawn) [6n’, 5-Methyl-2-(1-(1-((1-(pyridin-4-yl)-1H-1,2,3-triazol-4-yl)methyl)-1H-benzo[d]imidazol-2-yl)ethyl)isoindoline-1,3-dione]: 236 to 238 °C.

The term melting point denotes the temperature of the solid-liquid transition.
